Values quoted from earlier work in US7005448B2, “Aminoalkyl-benzofuran-5-ol compounds for the treatment of glaucoma” (priority 2001, dated 2006).
Read-outs that look alike come from different tables or passages of the source.

Tests used:
rabbit eye = conditions: for intraocular pressure in the anterior chamber of the eye: topically applied to the rabbit eye [Meyer-Bothling et al. 1993]
animals = conditions: in vivo
5-HT2A receptor = 5-HT2A receptor (Homo sapiens, UniProt P28223)
[1] = intracamerally [Krootila et al. 1987]

Sequence of 5-HT2A receptor (P28223 whole entry): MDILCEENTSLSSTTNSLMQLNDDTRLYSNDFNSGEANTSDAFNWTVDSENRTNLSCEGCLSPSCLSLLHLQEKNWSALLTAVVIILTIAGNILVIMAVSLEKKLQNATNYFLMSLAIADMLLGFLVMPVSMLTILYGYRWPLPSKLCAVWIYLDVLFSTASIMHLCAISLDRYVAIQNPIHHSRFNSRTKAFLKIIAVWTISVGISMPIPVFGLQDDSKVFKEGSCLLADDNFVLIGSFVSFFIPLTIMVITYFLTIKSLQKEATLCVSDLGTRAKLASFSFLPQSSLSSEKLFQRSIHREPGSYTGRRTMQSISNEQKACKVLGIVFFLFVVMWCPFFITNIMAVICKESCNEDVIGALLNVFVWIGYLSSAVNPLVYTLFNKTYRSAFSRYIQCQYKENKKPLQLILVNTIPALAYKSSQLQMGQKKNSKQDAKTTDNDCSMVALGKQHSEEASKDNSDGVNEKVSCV

Compound: CCCN(CCC)C1CCc2cccc(O)c2C1 (stereo not shown) [8-hydroxy DPAT]
- IOP (rabbit eye; rabbits): lower IOP

Compound: CNCCC(Oc1ccc(C(F)(F)F)cc1)c1ccccc1 (stereo not shown) [fluoxetine]
- IOP (human subjects; human subjects, oral administration): raises IOP

Compound: NCCc1c[nH]c2ccc(C(N)=O)cc12 [Compound 5-CT, 5-carboxamidotryptainine]
- intraocular pressure in the anterior chamber of the eye (rabbit eye): raise intraocular pressure

Compound: O=C(c1ccc(F)cc1)C1CCN(CCn2c(=O)[nH]c3ccccc3c2=O)CC1 [Ketanserin]
- α1 receptor antagonist activity (α1 receptor): significant α1 antagonist activity
- IOP (human subjects; man): lowers IOP
- IOP (rabbit eye; rabbits): lowers IOP

Compound: NCCc1c[nH]c2ccc(O)cc12 [Compound 5-HT, 5-hydroxy tryptamine]
- IOP (rabbit eye; [1]): raised IOP
- blood-aqueous barrier (rabbit eye; [1]): breakdown of the blood-aqueous barrier
- IOP (rabbit eye; topically applied [Krootila et al. 1987]): lowers IOP
- intraocular pressure in the anterior chamber of the eye (rabbit eye): raise intraocular pressure

Compound: COc1cccc(CCc2ccccc2OCC(CN(C)C)OC(=O)CCC(=O)O)c1 (stereo not shown) [Saprogrelate]
- IOP (human subjects; man, dosed topically or orally): lowers IOP
- IOP (rabbit eye; rabbits, dosed topically or orally): lowers IOP

Compound: c1ccc2c(c1)OC[C@H](CNCCCOc1ccc3c(c1)OCO3)O2 [MKC-242]
- α1 receptor antagonist activity (α1 receptor): relatively potent α1 receptor antagonists
- IOP (rabbit eye; rabbits): lower IOP

Compound: CC[C@@H](CO)NC(=O)[C@@H]1C=C2c3cccc4c3c(cn4C)C[C@H]2N(C)C1 [Methysergide]
- IOP (rabbit eye; rabbits): lowered IOP

Compound: CC(N)Cc1c2ccoc2c(Br)c2ccoc12 (stereo not shown) [The Nichols compound]
- generalization to LSD in drug discrimination studies (animals): generalize to LSD
- affinity for the 5-HT2A receptor (5-HT2A receptor): high affinity

Compound: COc1ccccc1N1CCN(CCCNc2c(C)c(=O)n(C)c(=O)n2C)CC1 [5-methylurapidil]
- IOP (glaucomatous monkeys): lowered IOP
- α1 receptor antagonist activity (α1 receptor): relatively potent α1 receptor antagonists
